Results reported in patent US20080280945A1, “Crystalline forms of an HIV integrase inhibitor” (priority 2007, published 2008).
In brackets after ≈: the same amount, converted by molar mass.

How the values were obtained:
[1] = thermal stability studies, 2 weeks storage, HPLC and XRPD; assay type: physicochemical; settings: for Loss at 40° C., 75% RH / Loss at 60° C., ambient RH: 2 weeks storage, HPLC, NLQ = no loss greater than the limit of quantitation
Experimental: One set of samples of the amorphous, crystalline ethanolate, crystalline hydrate, and crystalline anhydrate forms of Isomer M were stored in a GMP stability chamber at 40° C. and 75% relative humidity (RH) and another set of analogous samples was stored at 60° C. and ambient RH in a Vacuum Oven, NAPCO (National Appliance Company) Model 5831. The samples were analyzed by XRPD and by HPLC before and after 2 weeks storage. HPLC conditions: column=Symmetry Shield RP18 15 cm×4.6 mm (Waters Corporation) with 3.5 μm particle size; temperature=25° C., UV detection at λ=220 nm; flow rate=1 mL/minute; injection volume=10 μL; mobile phase=initial conditions at 20% acetonitrile and 80% 0.1% phosphate buffer with a gradient from 20% acetonitrile to 35% acetonitrile in 8 minutes, hold at 35% acetonitrile for 5 minutes, from 35% to 60% acetonitrile in 13 minutes, from 60% to 90% acetonitrile in 10 minutes (run time: 36 minutes, equilibration time: 10 minutes).

[2] = solubility in water at 25° C. (ReactArray ST system, HPLC); assay type: physicochemical; settings: for Solubility: equilibrated 24 h, average of last four hours, mean ± SE of 4 samples (amorphous: 1 sample); for Comment (form of excess solid): excess solid after solubility experiment
Experimental: The solubilities of crystalline ethanolate, crystalline hydrate and crystalline anhydrate were determined in water at 25° C. using a ReactArray ST™ system (Anachem, UK). Approximately 50 mg of material was transferred to a sample tube and 1.5 mL of water was added to it. The tubes were mounted on a temperature control block and the slurry was stirred at 400 rpm using a magnetic stir bar. The solution was equilibrated for 24 hours following which the concentration was monitored every hour for 6 hours.
HPLC conditions: column=C18 Bridge column (Waters Corporation), 4.6 mm×50 mm and 2.5 μm particle size; temperature=25° C., UV detection at λ=220 nm; flow rate=1 mL/minute; injection volume=5 μL; mobile phase=initial conditions at 20% acetonitrile and 80% 0.1% phosphate buffer with a gradient from 20% acetonitrile to 95% acetonitrile in 3 minutes, hold at 95% acetonitrile for 3 minutes, then from 95% to 20% acetonitrile in 0.1 minute (run time: 7 minutes), followed by 1 minute conditioning.

[3] = test system: acute HIV infection of T-lymphoid cells; assay: inhibition of acute HIV infection of T-lymphoid cells (Vacca et al.); assay type: cell-based; settings: n=6
[4] = after 2 weeks at 60° C., ambient RH

Row | Structure (SMILES) | Loss at 40° C., 75% RH [1] | Solubility [2] | Comment (form of excess solid) [2] | Loss at 60° C., ambient RH [1] | XRPD (form change) ([1]; after 2 weeks at 40° C., 75% RH) | XRPD (form change) [1, 4] | IC95 ([3]; in the presence of 10% FBS) | IC95 ([3]; in the presence of 50% human serum)
1 | CN1C[C@H](O)C(C)(C)Cn2c(c3c(c(O)c2=O)C(=O)N(Cc2ccc(F)c(Cl)c2)CC3)C1=O [Amorphous, M-(4R)-11-(3-chloro-4-fluorobenzyl)-4,9-dihydroxy-2,5,5-trimethyl-3,4,5,6,12,13-hexahydro-2H[1,4]diazocino[2,1-a]-2,6-naphthyridine-1,8,10(11H)-trione] | 8.9 A % | 0.83 mg/mL (≈ 1740 µM) | Excess solid is amorphous |  |  |  |  | 
2 | CN1C[C@H](O)C(C)(C)Cn2c(c3c(c(O)c2=O)C(=O)N(Cc2ccc(F)c(Cl)c2)CC3)C1=O [Crystalline anhydrate, M-(4R)-11-(3-chloro-4-fluorobenzyl)-4,9-dihydroxy-2,5,5-trimethyl-3,4,5,6,12,13-hexahydro-2H[1,4]diazocino[2,1-a]-2,6-naphthyridine-1,8,10(11H)-trione anhydrate] | NLQ | 0.124 (±0.010) mg/mL | Excess solid is anhydrate | NLQ | no detectable change | no detectable change |  | 
3 | CN1C[C@H](O)C(C)(C)Cn2c(c3c(c(O)c2=O)C(=O)N(Cc2ccc(F)c(Cl)c2)CC3)C1=O [Crystalline ethanolate, M-(4R)-11-(3-chloro-4-fluorobenzyl)-4,9-dihydroxy-2,5,5-trimethyl-3,4,5,6,12,13-hexahydro-2H[1,4]diazocino[2,1-a]-2,6-naphthyridine-1,8,10(11H)-trione ethanolate] | 0.3 A % | 0.071 (±0.002) mg/mL | Excess solid converts to hydrate | 11.5 A % |  | no detectable change |  | 
4 | CN1C[C@H](O)C(C)(C)Cn2c(c3c(c(O)c2=O)C(=O)N(Cc2ccc(F)c(Cl)c2)CC3)C1=O [Isomer M, M-(4R)-11-(3-chloro-4-fluorobenzyl)-4,9-dihydroxy-2,5,5-trimethyl-3,4,5,6,12,13-hexahydro-2H[1,4]diazocino[2,1-a]-2,6-naphthyridine-1,8,10(11H)-trione] |  |  |  |  |  |  | 15.6±0 1M | 51.7±16
